From patent US11059784B2, “Oxime ether compounds” (BRISTOL-MYERS SQUIBB COMPANY, priority 2017, dated 2021) come the findings set out here.

pEC50, pIC50: −log10 of the molar value. A value given as a limit tells only on which side of the number the result lay.

For series [1], the system named is blood lymphocytes. The series is described as follows: Blood Lymphocyte Reduction (BLR) assay in rodent. It is filed as in vivo, Lewis rats. Particulars: 24 hr post-dose; for Percent reduction vs. vehicle control: Table C study.
Series [2] is described as follows: Pulmonary Toxicity Assay (bronchoalveolar lavage protein). It is filed as in vivo, rats. To be noted: 24 hr post-dose. As to the method: The analysis of protein levels in bronchoalveolar lavage (BAL) fluid obtained from an animal were used to gauge pulmonary side effects. Increased levels of protein in BAL fluid were indicative of undesired edematous pulmonary effects, such as pulmonary edema.
Example 3 was administered orally to rats at doses of 0.3, 1.0, 10, 30 mg/kg and 2-amino-2-[2-(4-octylphenyl)ethyl]-1,3-propanediol, hydrochloride (CAS: 162359-56-0) was administered at 3.0 mg/kg as a solution in the vehicle. At 24 hours post dose, the rats were then euthanized by barbiturate overdose. The trachea was exposed by incision of the overlying skin and then cannulated. The lungs were lavaged with 4 mL of saline. The recovered lavage fluid was assayed for total protein content. The concentration of the BAL protein in the recovered BAL fluid was determined on an Advia 1800 Chemistry Analyzer (Siemens Healthcare Diagnostics). The results represent the average results of all animals within each treatment group (n=2-4).

Series [3] addresses T1, S1P1 (Homo sapiens (Human), UniProt P21453). The series is described as follows: S1P1 Binding Assay (33P-S1P ligand competition, CHO membranes). To be noted: membranes from CHO cells expressing human S1P1. As to the method:
Membranes were prepared from CHO cells expressing human S1P1. Cells pellets (1×10^9 cells/pellet) were suspended in buffer containing 20 mM HEPES (4-(2-hydroxyethyl)-1-piperazineethanesulfonic acid), pH 7.5, 50 mM NaCl, 2 mM EDTA (ethylenediamine tetraacetic acid) and Protease Inhibitor cocktail (Roche), and disrupted on ice using the Polytron homogenizer. The homogenate was centrifuged at 20,000 rpm (48,000 g) and the supernatant was discarded. The membrane pellets were resuspended in buffer containing 50 mM HEPES, pH 7.5, 100 mM NaCl, 1 mM MgCl2, 2 mM EDTA and stored in aliquots at −80° C. after protein concentration determination.
Membranes (2 μg/well) and 0.03 nM final concentration of ^33P-S1P ligand (1 mCi/ml, Perkin Elmer or American Radiolabeled Chemicals) diluted in assay buffer (50 mM HEPES, pH7.4, 5 mM MgCl2, 1 mM CaCl2), 0.5% fatty acid free BSA (bovine serum albumin), 1 mM NaF) were added to the compound plates (384 Falcon v-bottom plate (0.5 μl/well in a 11 point, 3-fold dilution). Binding was performed for 45 minutes at room temperature, terminated by collecting the membranes onto 384-well Millipore FB filter plates, and radioactivity was measured by TOPCOUNT®. The competition data of the test compounds over a range of concentrations was plotted as percentage inhibition of radioligand specific binding. The IC50 is defined as the concentration of competing ligand needed to reduce specific binding by 50%.

For a further series, the target named is S1P3 (Homo sapiens (Human), UniProt Q99500). The series is described as follows: Receptor [35S] GTPγS Binding Assay, S1P3. The format is biochemical. To be noted: membranes from EDG3-Gal5-bla HEK293T cells. As to the method: (§1) Receptor [^35S] GTPγS Binding Assays:
(§2) Compounds were loaded in a 384 Falcon v-bottom plate (0.5 μl/well in an 11 point, 3-fold dilution). Membranes prepared from S1P1/CHO cells or EDG3-Gal5-bla HEK293T cells (EDG3 equivalent S1P3) were added to the compound plate ([…], final protein 3 μg/well) with MULTIDROP®. [^35S]GTP (1250 Ci/mmol, Perkin Elmer) was diluted in assay buffer: 20 mM HEPES, pH7.5, 10 mM MgCl2, 150 mM NaCl, 1 mM EGTA (ethylene glycol tetraacetic acid), 1 mM DTT (Dithiothreitol), 10 μM GDP, 0.1% fatty acid free BSA, and 10 μg/ml Saponin to 0.4 nM. 40 μl of the [35S] GTP solution was added to the compound plate with a final concentration of 0.2 nM. The reaction was kept at room temperature for 45 min. At the end of incubation, all the mixtures in the compound plate were transferred to Millipore 384-well FB filter plates via the VELOCITY11 ® Vprep liquid handler. The filter plate was washed with water 4 times by using the manifold Embla plate washer and dried at 60° C. for 45 min. MicroScint 20 scintillation fluid (30 μl) was added to each well for counting on the Packard TOPCOUNT®. EC50 is defined as the agonist concentration that corresponds to 50% of the Ymax (maximal response) obtained for each individual compound tested.

Series [4] has as its target T1, S1P1. Nature of the series: Receptor [35S] GTPγS Binding Assay, S1P1. The format is biochemical. To be noted: membranes from S1P1/CHO cells. As to the method: as §1, §2
A smaller value for GTPγS S1P1 EC50 value indicated greater activity for the compound in the GTPγS S1P1 binding assay. Thus the compounds of the present invention may be used in treating, preventing, or curing various S1P1 receptor-related conditions. The compounds have potential use in treating, preventing, or curing autoimmune and inflammatory diseases such as multiple sclerosis, rheumatoid arthritis, inflammatory bowel disease, lupus, psoriasis, or minimizing or reducing rejection of transplanted organs.

Series [5] relates to blood lymphocytes. The series is described as follows: Blood Lymphocyte Reduction (BLR) assay in rodent. Particulars: 24 hr post-dose, Table B study; for Percent reduction vs. control: hydrochloride. It is filed as in vivo, Lewis rats. As to the method: Blood Lymphocyte Reduction (BLR) assay in rodent:
Lewis rats were dosed orally with vehicle alone (polyethylene glycol 300, “PEG300”) or with the comparative compound 2-amino-2-[2-(4-octylphenyl)ethyl]-1,3-propanediol, hydrochloride (“FTY” CAS: […]) as a solution in the vehicle at doses of 0.1 mg/kg, 0.5 mg/kg and 3.0 mg/kg. The results are provided in Table Band the level of lymphocyte reduction at 24 hours post-dose was maximal at 3.0 mg/kg. The percent reduction in lymphocytes is dose-related but the relationship is not linear, with non-proportional increases in dose being required to elicit sequentially greater reductions in lymphocyte counts.

T1 sequence (P21453 whole entry): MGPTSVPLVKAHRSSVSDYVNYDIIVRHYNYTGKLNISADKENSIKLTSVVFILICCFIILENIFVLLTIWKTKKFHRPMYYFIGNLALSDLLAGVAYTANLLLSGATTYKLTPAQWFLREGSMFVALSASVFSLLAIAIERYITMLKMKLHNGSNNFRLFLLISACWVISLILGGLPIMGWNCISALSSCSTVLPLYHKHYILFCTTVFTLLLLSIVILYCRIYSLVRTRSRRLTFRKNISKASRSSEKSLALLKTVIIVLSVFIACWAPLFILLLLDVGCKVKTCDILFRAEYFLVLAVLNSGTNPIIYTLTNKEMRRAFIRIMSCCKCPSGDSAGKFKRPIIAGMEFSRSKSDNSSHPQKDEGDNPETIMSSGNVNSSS
Chain of S1P3 (Q99500 whole entry): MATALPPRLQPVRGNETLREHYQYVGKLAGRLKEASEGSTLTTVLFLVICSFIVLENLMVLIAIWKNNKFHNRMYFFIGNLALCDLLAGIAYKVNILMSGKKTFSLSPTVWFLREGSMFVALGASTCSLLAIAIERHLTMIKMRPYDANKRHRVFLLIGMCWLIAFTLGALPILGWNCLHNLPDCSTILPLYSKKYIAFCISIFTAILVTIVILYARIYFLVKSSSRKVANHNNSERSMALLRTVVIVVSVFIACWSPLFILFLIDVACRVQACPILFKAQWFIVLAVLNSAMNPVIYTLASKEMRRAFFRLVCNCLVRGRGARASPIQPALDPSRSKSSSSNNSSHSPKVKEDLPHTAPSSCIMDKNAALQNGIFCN

With `CC(=NOCCc1ccccc1)c1ccc(C2CCC(N)(CO)C2)cc1.Cl` (centres unmarked) [Example 3, 1-(4-(3-amino-3-(hydroxymethyl)cyclopentyl)phenyl)ethanone O-phenethyl Oxime], the “Percent reduction vs. vehicle control” value in the series with blood lymphocytes [1] (0.3 mg/kg) is 29%; with blood lymphocytes [1] (1 mg/kg), 62%; in the series with blood lymphocytes [1] (10 mg/kg), 85%; with blood lymphocytes [1] (30 mg/kg), 85%. Further, the “level of lymphocyte reduction (in words)” value with blood lymphocytes [1] (10 mg/kg and 30 mg/kg) was “maximal level of lymphocyte reduction comparable to the reduction shown by FTY”. The “Relative BAL protein vs. control” value in series [2] (0.3 mg/kg oral) amounted to 0.8; in series [2] (1 mg/kg oral), 0.8; in series [2] (10 mg/kg oral), 1.2; in series [2] (30 mg/kg oral) it was 1.3.

Compound `C/C(=N\OCCc1ccccc1)c1ccc([C@@H]2CC[C@](N)(COP(=O)(O)O)C2)cc1` [Example 72, ((1R,3R)-1-amino-3-(4-((E)-1-(phenethoxyimino)ethyl)phenyl)cyclopentyl)methyl dihydrogen phosphate] gave a pIC50 at S1P1 [3] of 7.21. Further, the pEC50 was less than 4.52 on S1P3 and 7.04 on S1P1 [4].

On to `CCCCCCCCc1ccc(CCC(N)(CO)CO)cc1.Cl` [FTY, 2-amino-2-[2-(4-octylphenyl)ethyl]-1,3-propanediol, hydrochloride], for which, in the series on blood lymphocytes [1] (3 mg/kg), the “Percent reduction vs. vehicle control” value is listed as 87%. Besides, the entries for the “Rat Blood Lymphocyte Reduction Assay, Compound Mean” value in the series with blood lymphocytes [5] (0.1 mg/kg oral), with blood lymphocytes [5] (0.5 mg/kg oral) and in the series on blood lymphocytes [5] (3.0 mg/kg oral) were 2.78, 1.64 and 1.02, respectively. Also, the “Percent reduction vs. control” value with blood lymphocytes [5] (0.1 mg/kg oral) is reported as 69%; in the series on blood lymphocytes [5] (0.1 mg/kg oral, listed as 2-amino-2-[2-(4-octylphenl)pethyl]-1,3-propanediol), 69%; in the series on blood lymphocytes [5] (0.5 mg/kg oral), 82%; with blood lymphocytes [5] (0.5 mg/kg oral, listed as 2-amino-2-[2-(4-octylphenl)pethyl]-1,3-propanediol), 82%; in the series with blood lymphocytes [5] (3.0 mg/kg oral), 89%; with blood lymphocytes [5] (3.0 mg/kg oral, listed as 2-amino-2-[2-(4-octylphenl)pethyl]-1,3-propanediol), 89%. The “Relative BAL protein vs. control” value in series [2] (3 mg/kg oral) is 1.8.
